The target of series [1] is Protein deacetylase HDAC6, Homo sapiens (UniProt Q9UBN7). The series can be described thus: biochemical.
For series [2], the target named is T1, Protein deacetylase HDAC6 (Mus musculus) (UniProt Q9Z2V5).
T1 sequence (whole entry): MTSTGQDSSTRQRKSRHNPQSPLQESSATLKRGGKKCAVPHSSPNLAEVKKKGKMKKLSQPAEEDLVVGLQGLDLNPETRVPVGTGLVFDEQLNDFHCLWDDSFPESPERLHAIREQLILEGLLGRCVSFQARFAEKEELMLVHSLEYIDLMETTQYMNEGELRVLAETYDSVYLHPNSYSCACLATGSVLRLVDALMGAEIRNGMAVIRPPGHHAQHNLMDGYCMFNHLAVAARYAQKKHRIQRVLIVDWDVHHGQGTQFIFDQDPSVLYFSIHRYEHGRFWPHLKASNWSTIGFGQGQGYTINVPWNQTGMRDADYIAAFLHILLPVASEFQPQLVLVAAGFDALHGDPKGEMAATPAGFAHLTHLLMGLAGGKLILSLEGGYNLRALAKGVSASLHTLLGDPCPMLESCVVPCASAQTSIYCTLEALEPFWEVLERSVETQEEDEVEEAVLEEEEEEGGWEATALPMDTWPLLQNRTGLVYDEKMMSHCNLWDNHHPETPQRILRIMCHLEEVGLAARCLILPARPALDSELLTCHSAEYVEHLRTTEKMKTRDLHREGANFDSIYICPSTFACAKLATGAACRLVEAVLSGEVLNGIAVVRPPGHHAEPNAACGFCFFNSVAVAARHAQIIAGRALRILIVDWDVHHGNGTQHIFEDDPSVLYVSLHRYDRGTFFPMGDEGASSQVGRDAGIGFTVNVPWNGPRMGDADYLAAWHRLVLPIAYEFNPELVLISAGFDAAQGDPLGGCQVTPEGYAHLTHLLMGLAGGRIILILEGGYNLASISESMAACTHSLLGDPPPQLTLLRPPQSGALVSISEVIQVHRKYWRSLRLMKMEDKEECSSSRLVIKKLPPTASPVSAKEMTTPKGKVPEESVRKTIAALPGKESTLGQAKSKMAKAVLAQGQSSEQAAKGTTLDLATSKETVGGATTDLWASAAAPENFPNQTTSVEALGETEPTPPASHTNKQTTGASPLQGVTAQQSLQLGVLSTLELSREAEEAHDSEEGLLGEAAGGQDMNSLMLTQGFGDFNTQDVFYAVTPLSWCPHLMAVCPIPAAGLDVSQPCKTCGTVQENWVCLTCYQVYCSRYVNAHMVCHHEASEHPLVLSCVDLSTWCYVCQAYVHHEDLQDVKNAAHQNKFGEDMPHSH
The series is described as follows: Inhibition of HDAC6 in mouse Neuro2a cells assessed as fold increase in ratio of acetylated alpha-tubulin to alpha tubulin at 0.01 uM incubated for overnight by Western blot analysis. The format is cell-based. Particulars: time 12.0 hrs. A general note: A western blot detects proteins with antibodies after separation by electrophoresis.

Series [3] has as its target T2, Histone deacetylase 1 (Homo sapiens, UniProt Q13547). The series is described as follows: biochemical.
Target sequence in this assay (Q13547 whole entry, looked up): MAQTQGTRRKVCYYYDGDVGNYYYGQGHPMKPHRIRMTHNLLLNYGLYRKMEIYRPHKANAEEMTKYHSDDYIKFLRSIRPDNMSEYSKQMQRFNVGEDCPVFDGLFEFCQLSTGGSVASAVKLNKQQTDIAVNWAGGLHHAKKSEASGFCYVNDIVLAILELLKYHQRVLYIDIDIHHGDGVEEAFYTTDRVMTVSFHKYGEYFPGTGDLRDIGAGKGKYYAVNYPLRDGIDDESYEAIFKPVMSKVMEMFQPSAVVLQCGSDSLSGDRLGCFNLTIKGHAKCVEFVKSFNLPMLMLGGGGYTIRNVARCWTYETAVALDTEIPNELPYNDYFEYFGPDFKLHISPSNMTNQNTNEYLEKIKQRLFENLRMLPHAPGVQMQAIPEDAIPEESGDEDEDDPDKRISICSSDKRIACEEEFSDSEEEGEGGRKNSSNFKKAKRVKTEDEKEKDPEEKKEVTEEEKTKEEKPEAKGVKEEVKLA
For series [4], the target named is T1, Protein deacetylase HDAC6 (Mus musculus). The series can be described thus: Inhibition of HDAC6 in mouse Neuro2a cells assessed as fold increase in ratio of acetylated alpha-tubulin to alpha tubulin at 1 uM incubated for overnight by Western blot analysis. It counts as cell-based. The note with it: time 12.0 hrs.
In another series the target is T3, Histone deacetylase 8 (Homo sapiens, UniProt Q9BY41).
T3 sequence (Q9BY41 whole entry): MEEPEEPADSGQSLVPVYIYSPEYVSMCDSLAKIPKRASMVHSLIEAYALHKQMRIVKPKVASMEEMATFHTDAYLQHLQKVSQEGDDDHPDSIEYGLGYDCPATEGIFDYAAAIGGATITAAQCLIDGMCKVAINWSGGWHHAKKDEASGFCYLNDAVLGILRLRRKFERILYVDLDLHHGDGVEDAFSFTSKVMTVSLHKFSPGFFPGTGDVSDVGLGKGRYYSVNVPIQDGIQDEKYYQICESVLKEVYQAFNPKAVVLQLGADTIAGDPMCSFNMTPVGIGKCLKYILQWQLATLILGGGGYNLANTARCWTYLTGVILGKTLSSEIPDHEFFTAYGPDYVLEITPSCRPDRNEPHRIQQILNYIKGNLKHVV

In series [5] the target is T2, Histone deacetylase 1.
Target sequence in this assay (Q13547 whole entry): as the sequence (Q13547 whole entry, looked up) above
Description: Inhibition of recombinant human HDAC1 using Ac-GAK(Ac)-AMC as substrate preincubated for 10 mins followed by substrate addition and measured after 30 mins by fluorescence-based assay
Series [6] has as its target T4, Protein deacetylase HDAC6 (Homo sapiens, UniProt Q9UBN7).
T4 sequence (Q9UBN7 whole entry): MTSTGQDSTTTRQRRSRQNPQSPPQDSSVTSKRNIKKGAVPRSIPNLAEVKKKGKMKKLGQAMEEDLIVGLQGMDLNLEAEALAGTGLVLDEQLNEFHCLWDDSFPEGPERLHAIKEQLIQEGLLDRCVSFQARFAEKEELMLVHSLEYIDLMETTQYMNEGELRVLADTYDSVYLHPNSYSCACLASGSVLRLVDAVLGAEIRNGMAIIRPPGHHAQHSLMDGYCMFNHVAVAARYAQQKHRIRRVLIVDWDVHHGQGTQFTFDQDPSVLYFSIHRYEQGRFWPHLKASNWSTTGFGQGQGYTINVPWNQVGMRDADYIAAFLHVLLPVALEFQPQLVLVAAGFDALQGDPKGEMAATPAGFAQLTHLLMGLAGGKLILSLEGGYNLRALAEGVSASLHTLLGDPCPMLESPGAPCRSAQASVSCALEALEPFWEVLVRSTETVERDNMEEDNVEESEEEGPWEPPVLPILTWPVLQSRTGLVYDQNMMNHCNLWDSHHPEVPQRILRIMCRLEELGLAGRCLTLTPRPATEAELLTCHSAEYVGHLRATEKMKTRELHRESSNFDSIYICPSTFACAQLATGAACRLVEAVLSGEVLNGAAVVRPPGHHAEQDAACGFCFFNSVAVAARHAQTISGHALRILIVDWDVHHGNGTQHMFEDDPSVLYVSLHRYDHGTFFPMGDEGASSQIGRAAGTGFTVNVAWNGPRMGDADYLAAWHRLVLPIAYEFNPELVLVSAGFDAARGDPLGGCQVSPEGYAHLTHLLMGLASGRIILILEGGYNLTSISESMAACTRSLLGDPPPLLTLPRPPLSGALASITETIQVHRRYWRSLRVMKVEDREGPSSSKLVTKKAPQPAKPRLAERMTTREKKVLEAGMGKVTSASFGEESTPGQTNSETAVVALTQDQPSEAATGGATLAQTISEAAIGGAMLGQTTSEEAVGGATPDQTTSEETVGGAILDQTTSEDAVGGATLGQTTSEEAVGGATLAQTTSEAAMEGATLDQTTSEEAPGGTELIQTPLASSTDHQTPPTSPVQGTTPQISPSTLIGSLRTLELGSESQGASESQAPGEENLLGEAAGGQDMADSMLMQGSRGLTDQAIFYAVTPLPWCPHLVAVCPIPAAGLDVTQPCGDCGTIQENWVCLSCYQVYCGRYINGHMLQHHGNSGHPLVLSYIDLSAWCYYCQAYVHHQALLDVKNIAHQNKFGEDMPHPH
Description: Inhibition of recombinant human HDAC6 using Ac-GAK(Ac)-AMC as substrate preincubated for 10 mins followed by substrate addition and measured after 30 mins by fluorescence-based assay

Series [7] can be described thus: Half life in human pooled liver microsomes assessed as parent compound remaining measured up to 60 mins in presence of NADPH by LC-MS/MS analysis. The format is ADME, Microsome. Particulars: pooled liver microsomes.
Series [8] is described as follows: Stability in human pooled liver microsomes assessed as parent compound remaining measured at 60 mins in presence of NADPH by LC-MS/MS analysis. It counts as ADME, Microsome. Particulars: pooled liver microsomes, read-out: Stabilty. A general note: Liver microsomes are vesicles of endoplasmic reticulum, rich in cytochrome P450 enzymes.
Series [9] in a line: Half life in CD1 mouse pooled liver microsomes assessed as parent compound remaining measured up to 60 mins in presence of NADPH by LC-MS/MS analysis. It counts as ADME, Microsome. The note with it: CD1, mouse, pooled liver microsomes.
Series [10] is described as follows: Stability in CD1 mouse pooled liver microsomes assessed as parent compound remaining measured at 60 mins in presence of NADPH by LC-MS/MS analysis. It counts as ADME, Microsome. Particulars: CD1, mouse, pooled liver microsomes, read-out: Stabilty.

pIC50: −log10 of the molar value.

Description for Histone deacetylase 8: Inhibition of recombinant human HDAC8 using Boc-Lys(TFA)-AMC as substrate preincubated for 10 mins followed by substrate addition and measured after 30 mins by fluorescence-based assay

`O=C(NO)c1ccc(CN2CCCc3cc(F)c(Cl)cc32)cc1`: the pIC50 in series [1] was 8.47; at Histone deacetylase 1 [3], 5.73. The Ratio IC50 in the series filed under Homo sapiens was found to be 550. Moreover, the fold change (FC) was 1.14 in series [2] and 1.53 in series [4].

Regarding `O=C(NO)c1ccc(CN2C(=O)CCc3cc(Br)ccc32)cc1`, the pIC50 against Histone deacetylase 8 is 6.13; on Histone deacetylase 1 [5], 6.97; in series [6], 9.05.

As for `O=C(NO)c1ccc(CN2CCCc3cc(Cl)c(Cl)cc32)cc1`, the pIC50 in series [1] was 8.44; on Histone deacetylase 1 [3] it was 5.58. In addition, the Ratio IC50 in the series filed under Homo sapiens is 728. In addition, the fold change (FC) in series [2] was 1.38; in [4], 1.54.

In the case of `N#Cc1ccc2c(c1)CCCCN2Cc1ccc(C(=O)NO)cc1`, the pIC50 is 5.65 against Histone deacetylase 8, 6.61 against Histone deacetylase 1 [5] and 8.34 in series [6]. Moreover, the half-life in [7] is 253 min; in series [9], 196 min. In addition, the remaining at 1 h in [8] came to 84.9%; in series [10] it was 80.8%. The fold change (FC) in series [4] was 0.98.

Turning to `CC1(C)CCN(Cc2ccc(C(=O)NO)cc2)c2ccc(F)cc21`, the pIC50 in series [1] was 7.35; against Histone deacetylase 1 [3] it was 4.68. Besides, the Ratio IC50 in the series filed under Homo sapiens came out at 468.

In the case of `O=C(NO)c1ccc(CN2CCCCc3cc(-c4cc[nH]n4)ccc32)cc1`, the pIC50 against Histone deacetylase 8 is 5.55; against Histone deacetylase 1 [5], 5.97; in [6] it was 7.77. In addition, the half-life is 22.2 min in series [7] and 18.3 min in [9]. In addition, the figures for the fold change (FC) in series [2] and in series [4] were 0.95 and 1.78, respectively. The remaining at 1 h in [8] came to 15%; in series [10], 10.1%.

Turning to `NC(=O)c1ccc2c(c1)CCCCN2Cc1ccc(C(=O)NO)cc1`, the pIC50 against Histone deacetylase 8 is 5.97; against Histone deacetylase 1 [5] it was 6.82; in [6] it was 8.62. The fold change (FC) in series [2] came to 2.4; in series [4], 1.19.

With `CC(c1ccc(C(=O)NO)cc1)N1CCCc2cc(Cl)ccc21` (stereo not given), the results for the pIC50 (in series [1]; against Histone deacetylase 1 [3]) were 6.42 and 5.07, respectively. In addition, the Ratio IC50 in the series listed under Homo sapiens worked out at 22.

Take `CCCc1ccc2c(c1)CCC(=O)N2Cc1ccc(C(=O)NO)cc1`: the figures for the pIC50 (against Histone deacetylase 8; against Histone deacetylase 1 [5]; in [6]) were 5.57, 6.51 and 7.92, respectively.

In the case of `O=C(NO)c1ccc(C(=O)N2CCCc3cc(Cl)ccc32)cc1`, the pIC50 in [1] was 6.02; against Histone deacetylase 1 [3] it was 4.98. In addition, the Ratio IC50 in the series listed under Homo sapiens stood at 11.

Take `O=C(NO)c1ccc(CN2C(=O)CCc3cc(C4CC4)ccc32)cc1`: the figures for the pIC50 (at Histone deacetylase 8; against Histone deacetylase 1 [5]; in series [6]) were 5.82, 6.93 and 8.57, respectively.

For the compound `O=C(NO)c1ccc(CN2CCCc3cc(Cl)ccc32)c(F)c1`, the negative logarithm of the IC50 (pIC50) in series [1] is 7.91; against Histone deacetylase 1 [3] it was 4.67. Also, the Ratio IC50 in the series listed under Homo sapiens was 1710. Also, the fold change (FC) in series [2] stood at 1.21; in series [4] it was 1.38. In addition, the half-life in [9] was determined as 24.8 min. Further, the remaining at 1 h in series [10] is 17.2%.

For the compound `N#Cc1ccc2c(c1)CCCN2Cc1ccc(C(=O)NO)cc1`, the pIC50 against Histone deacetylase 8 was 5.83; on Histone deacetylase 1 [5], 6.85; in series [6], 8.89.

With `CC1(C)CCc2cc(Cl)ccc2N1Cc1ccc(C(=O)NO)cc1`, the pIC50 in series [1] is 6.48; on Histone deacetylase 1 [3], 4.71. Also, the Ratio IC50 in the series filed under Homo sapiens was 60. The half-life in series [9] worked out at 25.4 min. Besides, the remaining at 1 h in [10] came out at 20.3%.

Take `O=C(NO)c1ccc(CN2CCCCc3cc(Br)ccc32)cc1`: the pIC50 at Histone deacetylase 8 was 5.36; on Histone deacetylase 1 [5], 5.80; in series [6], 8.05.

Turning to `CC1(C)CCN(Cc2ccc(C(=O)NO)cc2)c2ccc(Cl)cc21`, the pIC50 in [1] is 7.42; against Histone deacetylase 1 [3] it was 4.71. Further, the Ratio IC50 in the series listed under Homo sapiens amounted to 519. For the same compound, the half-life in series [9] is 15.9 min. Also, the remaining at 1 h in series [10] was 6.8%.

As to `CC1(C)CCc2cc(F)ccc2N1Cc1ccc(C(=O)NO)cc1`, the pIC50 in series [1] is 6.79; against Histone deacetylase 1 [3], 4.85. Also, the Ratio IC50 in the series listed under Homo sapiens stood at 88.

Consider `CN1CCc2c(c3ccccc3n2Cc2ccc(C(=O)NO)cc2)C1`, for which the fold change (FC) stood at 0.91 in series [2] and 1.11 in series [4].

On to `O=C(NO)c1ccc(CN2CCCc3cc(-c4cc[nH]n4)ccc32)cc1`, for which the pIC50 against Histone deacetylase 8 is 6.10; on Histone deacetylase 1 [5], 6.74; in series [6], 9.52. The fold change (FC) in series [2] amounted to 2.65; in [4], 2.14.

With `O=C(NO)c1ccc(CN2CCCc3cc(Cl)c(F)cc32)cc1`, the pIC50 in series [1] was 8.32; against Histone deacetylase 1 [3], 5.49. The Ratio IC50 in the series filed under Homo sapiens was found to be 670. Also, the results for the fold change (FC) in series [2] and in series [4] were 1.16 and 1.5, respectively. In addition, in series [9], the half-life amounted to 25.7 min. Also, in series [10], the remaining at 1 h turned out to be 19.1%.

The pIC50 is −log10 of the IC50, conventionally taken in molar units. A word on the half-life: it is the time needed for the level to fall by half in the phase considered.
